Experimental data taken from patent US20250228242A1 (priority 2021, published 2025).
Structures can show the parent of a compound that is named as a salt.

Experiments:
Phytophthora infestans = assay: whole plant or invertebrate; format: in vivo; conditions: in Solanum tuberosum, 120 h, read-out: P. infestans % inhibition
[1] = system: Pseudomonas syringae pv. tomato (Pto) DC3000; assay: Bacterial liquid culture growth curves (OD600), Pto DC3000; conditions: 18.5 h, read-out: Absolute growth rate relative to mock control, Pto DC3000
Rhodococcus sp. = assay: Bacterial liquid culture growth curves (OD600), Rhodococcus sp.; conditions: 18.5 h, read-out: Absolute growth rate relative to mock control, Rhodococcus sp.
P. infestans = assay: whole plant or invertebrate; format: in vivo; conditions: Phytophthora infestans, in Solanum tuberosum, read-out: P. infestans % inhibition

Oc1ccc(-c2cc(-c3cccc(C(F)(F)F)c3)[nH]n2)cc1O [Compound 12, 3-(3,4-Dihydroxyphenyl)-5-[3-(trifluoromethyl)phenyl]-1H-pyrazole]
inhibition at 100 µM (Phytophthora infestans): 76%
activity at 100 µM [1]: 104%
activity at 100 µM (Rhodococcus sp.): -1%

CN(C)c1cccc(-c2cc(-c3ccc4c(c3)OCO4)n[nH]2)c1 [Compound 14, 3-[3-(1,3-benzodioxol-5-yl)-1H-pyrazol-5-yl]-N,N-dimethylaniline]
inhibition at 100 µM (Phytophthora infestans): 71%
activity at 100 µM [1]: 100%
activity at 100 µM (Rhodococcus sp.): 11%

Ic1ccc(-c2cc(-c3ccc4c(c3)OCO4)n[nH]2)cc1 [Compound 15, 3-(1,3-Benzodioxol-5-yl)-5-(4-iodophenyl)-1H-pyrazole]
inhibition at 100 µM (Phytophthora infestans): 56%

c1ccc(-c2cc(-c3ccc4c(c3)OCO4)no2)cc1 [Compound 17, 3-(1,3-Benzodioxol-5-yl)-5-phenylisoxazole]
inhibition at 100 µM (Phytophthora infestans): 13%

COc1ccc(-c2cc(-c3cccc(F)c3)on2)cc1OC [Compound 20, 3-(3,4-Dimethoxyphenyl)-5-(3-fluorophenyl)isoxazole]
inhibition at 100 µM (Phytophthora infestans): 21%

Oc1ccc(-c2cc(-c3cccc(F)c3)on2)cc1O [Compound 21, 3-(3,4-Dihydroxyphenyl)-5-(3-fluorophenyl)isoxazole]
inhibition at 100 µM (Phytophthora infestans): 70%
activity at 100 µM [1]: 93%
activity at 100 µM (Rhodococcus sp.): 2%

Oc1ccc(-c2noc(-c3cccc(F)c3)n2)cc1O [Compound 25, 3-(3,4-Dihydroxyphenyl)-5-(3-fluorophenyl)-1,2,4-oxadiazole]
inhibition at 100 µM (Phytophthora infestans): 79%
activity at 100 µM [1]: 105%
activity at 100 µM (Rhodococcus sp.): 1%

Oc1ccc(-c2cc(-c3ccc(O)c(O)c3)[nH]n2)cc1O [Compound 27, 3,5-Bis(3,4-Dihydroxyphenyl)-1H-pyrazole hydrobromide]
inhibition at 100 µM (Phytophthora infestans): 62%
activity at 100 µM [1]: 77%
activity at 100 µM (Rhodococcus sp.): 98%

COc1ccc(-c2c[nH]c(-c3ccc(OC)c(OC)c3)n2)cc1OC [Compound 30, 2,4-Bis(3,4-dimethoxyphenyl)-1H-imidazole]
inhibition at 100 µM (Phytophthora infestans): 46%
activity at 100 µM [1]: 109%
activity at 100 µM (Rhodococcus sp.): 35%

COc1ccc(-c2cc(-c3ccc(Cl)cc3)n[nH]2)cc1 [Compound 31, 3-(4-Chlorophenyl)-5-(4-methoxyphenyl)-1H-pyrazole]
inhibition at 100 µM (Phytophthora infestans): 77%

CNc1ccc(-c2cc(-c3cccc(Br)c3)[nH]n2)cc1 [Compound 42, 5-(3-Bromophenyl)-3-[4-(methylamino)phenyl]-1H-pyrazole]
activity at 100 µM [1]: 73%
activity at 100 µM (Rhodococcus sp.): 72%

Fc1cc(F)cc(-c2cc(-c3ccc4c(c3)OCO4)n[nH]2)c1 [Compound 104, 3-(1,3-Benzodioxol-5-yl)-5-(3,5-difluorophenyl)-1H-pyrazole]
activity at 100 µM [1]: 101%
activity at 100 µM (Rhodococcus sp.): 51%

COCCOC(=O)Nc1cccc(-c2nc(-c3ccc(OC(F)(F)F)cc3)c[nH]2)c1 [Compound 137, 2-Methoxyethyl (3-{4-[4-(trifluoromethoxy)phenyl]-1H-imidazol-2-yl}phenyl) carbamate]
inhibition at 100 µM (P. infestans): 77%

CCc1ccc(-c2c[nH]c(-c3cccc(C(=O)N4CCN(C)CC4)c3)n2)cc1 [Compound 138, (4-Methylpiperazin-1-yl){3-[4-(4-ethylphenyl)-1H-imidazol-2-yl]phenyl}methanone]
inhibition at 100 µM (P. infestans): 68%

COCCOC(=O)Nc1cccc(-c2nc(-c3ccc(OC)cc3)n[nH]2)c1 [Compound 139, 2-Methoxyethyl {3-[3-(4-methoxyphenyl)-1H-1,2,4-triazol-5-yl]phenyl}carbamate]
inhibition at 100 µM (P. infestans): 48%

COc1ccc(-c2n[nH]c(-c3cccc(NC(=O)[C@H](C)N)c3)n2)cc1 [Compound 140, (2S)-2-Amino-N-{3-[3-(4-methoxyphenyl)-1H-1,2,4-triazol-5-yl]phenyl}propenamide hydrochloride]
inhibition at 100 µM (P. infestans): 39%

N[C@@H](Cc1ccccc1)C(=O)Nc1cccc(-c2nc(-c3ccc(OC(F)(F)F)cc3)c[nH]2)c1 [Compound 141, (2S)-2-Amino-N-{3-[4-(4-trifluoromethoxyphenyl)-1H-imidazol-2-yl]phenyl}-3-phenylpropanamide hydrochloride]
inhibition at 100 µM (P. infestans): 93%

O=C(O)c1ccc(-c2cc(-c3ccc(F)cc3)[nH]n2)cc1 [Compound 142, 4-[5-(4-Fluorophenyl)-1H-pyrazol-3-yl]benzoic acid]
inhibition at 100 µM (P. infestans): 46%

COc1ccc(-c2c[nH]c(-c3cccc(N4CCOCC4)c3)n2)cc1OC [Compound 144, 4-{3-[4-(3,4-Dimethoxyphenyl)-1H-imidazol-2-yl]phenyl}morpholine]
inhibition at 100 µM (P. infestans): 81%

CC(C)[C@H](N)C(=O)Nc1cccc(-c2cc(-c3cccc(OC(F)(F)F)c3)[nH]n2)c1 [Compound 145, (2S)-2-Amino-N-{3-[5-(3-trifluoromethoxyphenyl)-1H-pyrazol-3-yllphenyl}-3-methylbutanamide hydrochloride]
inhibition at 100 µM (P. infestans): 97%

CN1CCN(c2ccc(-c3cc(-c4cc(F)cc(F)c4)[nH]n3)cc2)CC1 [Compound 146, 1-{4-[5-(3,5-Difluorophenyl)-1H-pyrazol-3-yl]phenyl}-4-methylpiperazine]
inhibition at 100 µM (P. infestans): 95%

CN1CCN(C(=O)c2cccc(-c3cc(-c4ccc(C(F)(F)F)cc4)[nH]n3)c2)CC1 [Compound 147, {3-[5-(4-Trifluoromethylphenyl)-1H-pyrazol-3-yl]phenyl}(4-methylpiperazin-1-yl)methanone]
inhibition at 100 µM (P. infestans): 81%

COCCNC(=O)Nc1cccc(-c2cc(-c3cccc(OC(F)(F)F)c3)[nH]n2)c1 [Compound 148, 1-{3-[5-(3-Trifluoromethoxyphenyl)-1H-pyrazol-3-yl]phenyl}-3-(2-methoxyethyl)urea]
inhibition at 100 µM (P. infestans): 6%

CN1CCN(c2ccc(-c3cc(-c4cc(F)ccc4F)[nH]n3)cc2)CC1 [Compound 149, 1-{4-[5-(2,5-Difluorophenyl)-1H-pyrazol-3-yl]phenyl}-4-methylpiperazine]
inhibition at 100 µM (P. infestans): 8%

Cc1cccc(-c2nc(-c3cccc(F)c3)c[nH]2)c1 [Compound 150, 4-(3-Fluorophenyl)-2-(3-methylphenyl)-1H-imidazole]
inhibition at 100 µM (P. infestans): 91%

Fc1cccc(-c2c[nH]c(-c3cccc(C(F)(F)F)c3)n2)c1 [Compound 151, 4-(3-Fluorophenyl)-2-[3-(trifluoromethyl)phenyl]-1H-imidazole]
inhibition at 100 µM (P. infestans): 85%

CCc1ccc(-c2c[nH]c(-c3ccc(NS(C)(=O)=O)cc3)n2)cc1 [Compound 152]
inhibition at 100 µM (P. infestans): 91%

CCc1ccc(-c2c[nH]c(-c3ccc(NC(=O)[C@@H]4CCCN4)cc3)n2)cc1 [Compound 153, (2S)-N-{4-[4-(4-Ethylphenyl)-1H-imidazol-2-yl]phenyl}pyrrolidine-2-carboxamide dihydrochloride]
inhibition at 100 µM (P. infestans): 95%

CCc1ccc(-c2c[nH]c(-c3ccc(NC(=O)OCCOC)cc3)n2)cc1 [Compound 154, 2-Methoxyethyl {4-[4-(4-ethylphenyl)-1H-imidazol-2-yl]phenyl}carbamate]
inhibition at 100 µM (P. infestans): 89%

CCc1ccc(-c2c[nH]c(-c3ccc(NC(C)=O)cc3)n2)cc1 [Compound 155, N-{4-[4-(4-Ethylphenyl)-1H-imidazol-2-yl]phenyl}acetamide]
inhibition at 100 µM (P. infestans): 16%

Cc1ccc(-c2n[nH]c(-c3cccc(N4CCCC4)c3)n2)cc1C [Compound 156, 3-(3,4-Dimethylphenyl)-5-[3-(pyrrolidin-1-yl)phenyl]-1H-1,2,4-triazole]
inhibition at 100 µM (P. infestans): 25%

Cc1ccc(-c2n[nH]c(-c3cccc(NC(=O)OC(C)C)c3)n2)cc1 [Compound 157, Propan-2-yl {3-[3-(4-methylphenyl)-1H-1,2,4-triazol-5-yl]phenyl}carbamate]
inhibition at 100 µM (P. infestans): 17%

COc1ccc(-c2nc(-c3cccc(Cl)c3)n[nH]2)cc1OC [Compound 158, 3-(3-Chlorophenyl)-5-(3,4-dimethoxyphenyl)-1H-1,2,4-triazole]
inhibition at 100 µM (P. infestans): 59%

Cc1ccc(-c2n[nH]c(-c3cccc(NC(=O)[C@@H](N)CC(C)C)c3)n2)cc1 [Compound 159, (2S)-2-Amino-N-{3-[3-(4-methylphenyl)-1H-1,2,4-triazol-5-yl]phenyl}-4-methylpentanamide]
inhibition at 100 µM (P. infestans): 97%

COc1ccc(-c2nc(-c3ccc(C)c(C)c3)n[nH]2)cc1OC [Compound 160, 5-(3,4-Dimethoxyphenyl)-3-(3,4-dimethylphenyl)-1H-1,2,4-triazole]
inhibition at 100 µM (P. infestans): 76%

FC(F)(F)c1cccc(-c2nc(-c3cccc(Cl)c3)n[nH]2)c1 [Compound 161, 3-(3-Chlorophenyl)-5-[3-(trifluoromethyl)phenyl]-1H-1,2,4-triazole]
inhibition at 100 µM (P. infestans): 50%

Cc1ccc(-c2cc(-c3ccc(NC(=O)[C@@H](N)CCC(N)=O)cc3)[nH]n2)cc1 [Compound 162, (2S)-2-Amino-N1-{4-[3-(4-methylphenyl)-1H-pyrazol-5-yl]phenyl}pentanediamide hydrochloride]
inhibition at 100 µM (P. infestans): 34%

O=C(c1cccc(-c2nc(-c3cccc(F)c3)n[nH]2)c1)N1CCOCC1 [Compound 163, {3-[3-(3-Fluorophenyl)-1H-1,2,4-triazol-5-yl]phenyl}(morpholin-4-yl)methanone]
inhibition at 100 µM (P. infestans): 22%

COc1ccc(-c2n[nH]c(-c3ccc(Br)cc3)n2)cc1 [Compound 164, 5-(4-Bromophenyl)-3-(4-methoxyphenyl)-1H-1,2,4-triazole]
inhibition at 100 µM (P. infestans): 8%

CCOc1cccc(-c2cc(-c3ccc(OC(F)(F)F)cc3)[nH]n2)c1 [Compound 165, 5-(3-Ethoxyphenyl)-3-[4-(trifluoromethoxy)phenyl]-1H-pyrazole]
inhibition at 100 µM (P. infestans): 2%

O=C(O)c1cccc(-c2cc(-c3ccc4c(c3)OCO4)[nH]n2)c1 [Compound 166, 3-[5-(1,3-Benzodioxol-5-yl)-1H-pyrazol-3-yl]benzoic acid]
inhibition at 100 µM (P. infestans): 6%
